From the CheMixHub ionic liquid set

Assay: xn = mol fraction of the nth substance listed

O + CCCCCCCCCCCCCC[n+]1ccccc1.O=C([O-])C(O)c1ccccc1 + C[C@H](N)C(=O)O
101 kPa, x2 = 0, x3 = 0
Details | electrical conductivity [S/m]
293.15 K | 0.00012
298.15 K | 0.00015
303.15 K | 0.00016
308.15 K | 0.00017
313.15 K | 0.00019

O + CCCCCCCCCCCCCC[n+]1ccccc1.O=C([O-])C(O)c1ccccc1 + NCC(=O)NCC(=O)O
101 kPa, x2 = 0, x3 = 0
Details | electrical conductivity [S/m]
293.15 K | 0.00012
298.15 K | 0.00015
303.15 K | 0.00016
308.15 K | 0.00017
313.15 K | 0.00019

O + CCCCCCCCCCCCCC[n+]1ccccc1.O=C([O-])C(O)c1ccccc1 + NCC(=O)O
101 kPa, x2 = 0, x3 = 0
Details | electrical conductivity [S/m]
293.15 K | 0.00012
298.15 K | 0.00015
303.15 K | 0.00016
308.15 K | 0.00017
313.15 K | 0.00019

O + CCCCCCCCCCCCCCn1cc[n+](C)c1.[Br-] + CC[N+](CC)(CC)CC.[Br-]
101 kPa, frequency 0.001 MHz, x2 = 0, x3 = 0
Details | electrical conductivity [S/m]
298.15 K | 0.00046
308.15 K | 0.00115
318.15 K | 0.00157

O + CCCCCCCCCCCCOS(=O)(=O)[O-].[Na+] + CCCCCCCCCCCCCCCC[N+](C)(C)C.[Br-]
Details | electrical conductivity [S/m]
298.15 K, 101 kPa, frequency 0.001 MHz, x2 = 0, x3 = 0 | 0.000321

NCC(=O)NCC(=O)O + CCCCCCCCCCCC[N+](C)(C)C.[Br-] + O
100 kPa
Details | electrical conductivity [S/m]
293.15 K, x1 = 0.0001801, x2 = 0.0003553 | 0.093
293.15 K, x1 = 0.0001801, x2 = 0.0003787 | 0.095
293.15 K, x1 = 0.0001801, x2 = 0.0004256 | 0.099
293.15 K, x1 = 0.0001802, x2 = 2.706e-05 | 0.0098
298.15 K, x1 = 9.009e-05, x2 = 2.704e-05 | 0.0082
298.15 K, x1 = 0.0001801, x2 = 0.0003553 | 0.096
298.15 K, x1 = 0.0001801, x2 = 0.0003787 | 0.097
298.15 K, x1 = 0.0001801, x2 = 0.0004021 | 0.099
303.15 K, x1 = 1.802e-05, x2 = 2.703e-05 | 0.0078
303.15 K, x1 = 9.009e-05, x2 = 2.704e-05 | 0.0097
308.15 K, x1 = 1.802e-05, x2 = 2.703e-05 | 0.0082
308.15 K, x1 = 9.005e-05, x2 = 0.0004487 | 0.098
313.15 K, x1 = 1.801e-05, x2 = 0.0005368 | 0.093
313.15 K, x1 = 1.802e-05, x2 = 2.703e-05 | 0.0087
313.15 K, x1 = 9.006e-05, x2 = 0.0004019 | 0.098
313.15 K, x1 = 0.0001801, x2 = 0.0003318 | 0.099

O=C([O-])[O-].[Na+].[Na+] + CCCCCCCCCCCC[N+](C)(C)C.[Br-] + O
298.15 K, 101 kPa
Details | electrical conductivity [S/m]
x1 = 0.0001801, x2 = 7.809e-05 | 0.2221
x1 = 0.0001801, x2 = 8.963e-05 | 0.2267
x1 = 0.0001801, x2 = 0.000101 | 0.2313
x1 = 0.0001801, x2 = 0.0001125 | 0.2359
x1 = 0.0001801, x2 = 0.0001241 | 0.2404
x1 = 0.0001801, x2 = 0.0001356 | 0.2449
x1 = 0.0001801, x2 = 0.0001466 | 0.2493
x1 = 0.0001801, x2 = 0.000158 | 0.2537
x1 = 0.0001801, x2 = 0.000169 | 0.2579
x1 = 0.0001801, x2 = 0.00018 | 0.2622
x1 = 0.0001801, x2 = 0.0001908 | 0.2663
x1 = 0.0001801, x2 = 0.0002018 | 0.2705
x1 = 0.0001801, x2 = 0.0002126 | 0.2745
x1 = 0.0001801, x2 = 0.0002234 | 0.278
x1 = 0.0001801, x2 = 0.000234 | 0.2806
x1 = 0.0001801, x2 = 0.0002447 | 0.2825
x1 = 0.0001801, x2 = 0.0002551 | 0.2841
x1 = 0.0001801, x2 = 0.0002658 | 0.2855
x1 = 0.0001801, x2 = 0.0002762 | 0.2868
x1 = 0.0001801, x2 = 0.0002867 | 0.288
x1 = 0.0001801, x2 = 0.0002986 | 0.2893
x1 = 0.0001801, x2 = 0.0003116 | 0.2908
x1 = 0.0001801, x2 = 0.000342 | 0.2939
x1 = 0.0001802, x2 = 0 | 0.1927
x1 = 0.0001802, x2 = 2.16e-06 | 0.1931
x1 = 0.0001802, x2 = 4.51e-06 | 0.1938
x1 = 0.0001802, x2 = 7.94e-06 | 0.1951
x1 = 0.0001802, x2 = 1.154e-05 | 0.1963
x1 = 0.0001802, x2 = 1.659e-05 | 0.1981
x1 = 0.0001802, x2 = 2.309e-05 | 0.2004
x1 = 0.0001802, x2 = 3.174e-05 | 0.2037
x1 = 0.0001802, x2 = 4.31e-05 | 0.2082
x1 = 0.0001802, x2 = 5.483e-05 | 0.2128
x1 = 0.0001802, x2 = 6.655e-05 | 0.2175
x1 = 0.001798, x2 = 0.0001498 | 1.359
x1 = 0.001798, x2 = 0.0001618 | 1.363
x1 = 0.001798, x2 = 0.0001776 | 1.367
x1 = 0.001798, x2 = 0.0001934 | 1.371
x1 = 0.001798, x2 = 0.000209 | 1.374
x1 = 0.001798, x2 = 0.0002246 | 1.377
x1 = 0.001798, x2 = 0.0002401 | 1.38
x1 = 0.001798, x2 = 0.0002555 | 1.383
x1 = 0.001798, x2 = 0.0002702 | 1.386
x1 = 0.001798, x2 = 0.0002851 | 1.389
x1 = 0.001798, x2 = 0.0003037 | 1.393
x1 = 0.001798, x2 = 0.0003216 | 1.396
x1 = 0.001798, x2 = 0.0003394 | 1.399
x1 = 0.001798, x2 = 0.0003576 | 1.402
x1 = 0.001798, x2 = 0.0003752 | 1.405
x1 = 0.001798, x2 = 0.0003925 | 1.408
x1 = 0.001799, x2 = 0 | 1.335
x1 = 0.001799, x2 = 8.18e-06 | 1.333
x1 = 0.001799, x2 = 1.563e-05 | 1.333
x1 = 0.001799, x2 = 2.381e-05 | 1.333
x1 = 0.001799, x2 = 3.217e-05 | 1.333
x1 = 0.001799, x2 = 4.072e-05 | 1.334
x1 = 0.001799, x2 = 5.126e-05 | 1.335
x1 = 0.001799, x2 = 6.398e-05 | 1.338
x1 = 0.001799, x2 = 7.671e-05 | 1.34
x1 = 0.001799, x2 = 8.888e-05 | 1.343
x1 = 0.001799, x2 = 0.0001014 | 1.346
x1 = 0.001799, x2 = 0.0001138 | 1.349
x1 = 0.001799, x2 = 0.000126 | 1.352
x1 = 0.001799, x2 = 0.0001379 | 1.355

NCC(=O)NCC(=O)O + CCCCCCCCCCCC[N+](C)(C)Cc1ccccc1.[Cl-] + O
101 kPa, x1 = 0.0008948, x2 = 0
Details | electrical conductivity [S/m]
293.15 K | 0.00137
298.15 K | 0.00165
303.15 K | 0.00198
308.15 K | 0.00239
313.15 K | 0.00284
